Assay results reported in PMC11396062, “The n-Butanol Extract Obtained from the Inner Bark of Tabebuia rosea (Bertol.) DC, Specioside, and Catalposide Induce Leukemia Cell Apoptosis in the Presence of Apicidin” (Molecules, 2024).
In brackets after ≈: the same amount, converted by molar mass. Like-named read-outs stand apart in the source and are kept apart here.

Assays:
THP-1 cells [1] = assay: Mitochondrial membrane potential (JC-1); assay type: cell-based, human; conditions: THP-1, JC-1, 24 h
Description: The Λᴪm was measured using a Guava Mitochondrial Depolarization Kit (4500-0250 Millipore, Darmstadt, Germany). After pretreatment with 1 µM apicidin for 24 h, the cells were exposed to various concentrations of the extract (25, 50, and 100 µg/mL) for 24 h. The cells were collected and suspended in 100 µL of PBS containing JC-1 and 7-AAD after incubation at 37 °C for 15 min. The fluorescence intensity of the cells was analyzed in a Guava Millipore flow cytometer (Merck Millipore, Bedford, MA, USA) using InCyte software (version 3.1, Merck Millipore).

THP-1 cells [2] = assay: Cell cycle analysis by flow cytometry; assay type: cell-based, human; conditions: THP-1, APC pretreatment
Description: After treatment with the extract, 7 × 10^4 cells were harvested, washed with PBS, fixed with 200 µL of ice-cold 70% ethanol, and maintained at 4 °C for 4 h before staining. The cell pellet was washed in 1X PBS, resuspended in 200 µL of Guava Cell Cycle reagent (#4500-0220, Millipore), and incubated in the dark at 37 °C for 30 min before analysis with a Guava flow cytometer (Merck Millipore, Bedford, MA, USA) using InCyte software (version 3.1, Merck Millipore).. Centrifugation was performed at 1200 rpm for 5 min at room temperature for each step.

THP-1 cells [3] = assay: Fluorescence microscopy of nuclear morphology (propidium iodide and Hoechst staining); assay type: cell-based, human; conditions: THP-1, APC pretreatment, extract 25 μg/mL
Description: Fluorescence microscopy was used to observe cell nuclear morphology, followed by propidium iodide (50 µg/mL) and Hoechst 333342 (1 mg/mL) staining. THP-1 cells (1 × 10^5 cells/well) were treated with fresh media (control) and with 25, 50, or 100 µg/mL extract for 24 h; 400 µM doxorubicin was used as a positive control. Further, 10 microliters of the cell suspension was mixed with 90 µL of the dye, incubated in a water bath for 5 min at 37 °C, and wrapped in aluminum foil. The cells were examined under an Olympus IX53 fluorescence microscope (Olympus Corporation, Tokyo, Japan). The following formula was used to calculate the percentage of apoptotic cells.

THP-1 cells [4] = assay: Flow cytometric apoptosis, Annexin V-CF647/7-AAD; assay type: cell-based, human; conditions: THP-1, 24 h, apicidin pretreatment
Description: In 96-well plates, 8 × 10^4 cells were treated with 25, 50, and 100 µg/mL extract and 400 µM doxorubicin (positive control) for 24 and 48 h. The cells were washed with 1X PBS, and apoptotic cells were detected by staining with 100 µL of Annexin V-CF647 and 5 µL of the 7-AAD Apoptosis Annexin Red Kit (FCCH100108 FlowCellect, Millipore, Darmstadt, Germany). The cells were incubated at room temperature for 15 min in the dark and analyzed on a Guava Millipore flow cytometer (Merck Millipore, Bedford, MA, USA) using InCyte software (version 3.1, Merck Millipore). The percentage of annexin V-positive cells was evaluated.

Jurkat cells = assay: MTT cell viability assay, Jurkat cells; assay type: cell-based, human; conditions: for IC50: Homo sapiens, Jurkat, MTT, n = 3; for SI (selectivity index): IC50 PBMC / IC50 Jurkat
Description: (§1) Jurkat and THP-1 cell lines were purchased from the American Type Culture Collection (ATCC, Rockville, MD, USA); Jurkat is a human lymphocytic cell line representing acute T-cell leukemia, and THP-1 is a monocytic cell line that represents acute myelogenous leukemia (AML). […] Cat Nos. […] The cells were maintained at 37 °C in a humidified atmosphere with 5% CO2. The culture medium was exchanged with fresh medium every 2-3 days. Peripheral blood mononuclear cells (PBMCs) were isolated from normal human venous blood. Further, 10 milliliters of human blood was mixed with 10 mL of RPMI-1640 containing 50 μL of heparin and gradually poured over 1 mL of HISTOPAQUE®-1119 (Sigma). The plasma was removed by centrifugation at 3000 rpm for 30 min. The peripheral blood mononuclear cell-containing layer was collected with a pipette and diluted in 4 mL of PBS. PBMCs were harvested by centrifugation at 1500 rpm for 10 min at room temperature, resuspended in RPMI-1640 with 10% FBS, and incubated at 37 °C in 5% CO2 humidified air. […] Doxorubicin was used as a reference standard drug (positive control). After treatment, the medium was discarded; 200 μL of RPMI 1640 medium without phenol red containing 0.5 mg/mL MTT (Sigma Chemical Co., Saint Louis, MO, USA; Cat. No. […] The plates were incubated for four hours at 37 °C with 5% CO2 in a humidified atmosphere. The medium was discarded, and 100 μL of DMSO was added to solubilize the formazan crystals. The absorbance was measured with an ELISA microplate reader at 492 nm (ELx800; BioTek Instruments Inc., Winooski, VT, USA). The percentage of viable cells was calculated on the basis of the nontreated control (taken as 100%). […] Three independent assays were performed, each in triplicate. The selectivity index corresponds to the ratio of the IC50 value calculated for the activity of synthesized compounds on a regular cell line (PBMCs) to that of the IC50 calculated for cancer cell lines (Jurkat and THP-1). Values greater than two were optimal for an efficient selectivity index.

[5] = test system: Peripheral blood mononuclear cells (PBMCs); assay: MTT cell viability assay, PBMC (normal cells); assay type: cell-based; conditions: Homo sapiens, n = 3
Description: Jurkat and THP-1 cell lines were purchased from the American Type Culture Collection (ATCC, Rockville, MD, USA); Jurkat is a human lymphocytic cell line representing acute T-cell leukemia, and THP-1 is a monocytic cell line that represents acute myelogenous leukemia (AML). Jurkat and THP-1 cells were maintained in RPMI 1640 medium (Sigma) supplemented with 10% heat-inactivated fetal bovine serum (FBS) (Gibco Cat No. 16140071, Waltham, MA USA), 200 μg/mL penicillin, 200 μg/mL streptomycin, 400 μg/mL neomycin (GIBCO, Cat No. 15640-055), 5 μg/mL amphotericin, and 1 mM sodium pyruvate (all from Sigma Chemical Co., Saint Louis, MO, USA; Cat Nos. A9528-50 MG, M7522-100ML, and S8636-100ML, respectively). The cells were maintained at 37 °C in a humidified atmosphere with 5% CO2. The culture medium was exchanged with fresh medium every 2–3 days. Peripheral blood mononuclear cells (PBMCs) were isolated from normal human venous blood. Further, 10 milliliters of human blood was mixed with 10 mL of RPMI-1640 containing 50 µL of heparin and gradually poured over 1 mL of HISTOPAQUE®-1119 (Sigma). The plasma was removed by centrifugation at 3000 rpm for 30 min. The peripheral blood mononuclear cell-containing layer was collected with a pipette and diluted in 4 mL of PBS. PBMCs were harvested by centrifugation at 1500 rpm for 10 min at room temperature, resuspended in RPMI-1640 with 10% FBS, and incubated at 37 °C in 5% CO2 humidified air.
Cell viability was determined by measuring the mitochondrial activity of live cells via the metabolism of the tetrazolium substrate 3-(4,5-dimethylthiazol-2-yl)-2,5-diphenyl tetrazolium bromide (MTT) and converting it to purple formazan crystals. Briefly, the cells (2 × 10^4 cells/well) were treated with 25, 50, 100, 200, or 400 μg/mL extract diluted in DMSO (at a final concentration of 0.5%) and incubated for 12, 24, or 48 h. Catalposide and specioside were tested at concentrations of 20, 50, and 100 μg/mL for 12, 24, and 48 h. For apicidin, 0.5, 1, and 2 μM apicidin were tested for 24 and 48 h. Doxorubicin was used as a reference standard drug (positive control). After treatment, the medium was discarded; 200 μL of RPMI 1640 medium without phenol red containing 0.5 mg/mL MTT (Sigma Chemical Co., Saint Louis, MO, USA; Cat. No. M2128-500MG) was then added to each well. The plates were incubated for four hours at 37 °C with 5% CO2 in a humidified atmosphere. The medium was discarded, and 100 μL of DMSO was added to solubilize the formazan crystals. The absorbance was measured with an ELISA microplate reader at 492 nm (ELx800; BioTek Instruments Inc., Winooski, VT, USA). The percentage of viable cells was calculated on the basis of the nontreated control (taken as 100%). The IC50 (concentration causing a 50% reduction in cellular viability) values for all the tested compounds were evaluated in Excel using the nonlinear regression curve method. Three independent assays were performed, each in triplicate.

THP-1 cells [6] = assay: MTT cell viability assay, THP-1 cells; assay type: cell-based, human; conditions: for IC50: Homo sapiens, MTT, n = 3, read-out: IC50
Description: as §1

Compound | depolarization of the mitochondrial membrane (THP-1 cells [1]) | G0/G1 phase arrest with APC pretreatment (THP-1 cells [2]) | apoptosis (nuclear morphology) after APC pretreatment (THP-1 cells [3]) | percentage of apoptotic cells, apicidin pretreatment compared with catalposide or specioside treatment (THP-1 cells [4]) | IC50 (Jurkat cells; 12 h) [µg/mL] | IC50 (Jurkat cells; 24 h) [µg/mL] | IC50 (Jurkat cells; 48 h) [µg/mL] | SI (selectivity index) (Jurkat cells; 12 h) | SI (selectivity index) (Jurkat cells; 24 h) | SI (selectivity index) (Jurkat cells; 48 h) | IC50 ([5]; 12 h) [µg/mL] | IC50 ([5]; 24 h) [µg/mL] | IC50 ([5]; 48 h) [µg/mL] | IC50 (THP-1 cells [6]; THP-1, 12 h) [µg/mL] | IC50 (THP-1 cells [6]; THP-1, 24 h) [µg/mL] | IC50 (THP-1 cells [6]; THP-1, 48 h) [µg/mL] | SI (selectivity index) (THP-1 cells [6]; IC50 PBMC / IC50 THP-1, 12 h) | SI (selectivity index) (THP-1 cells [6]; IC50 PBMC / IC50 THP-1, 24 h) | SI (selectivity index) (THP-1 cells [6]; IC50 PBMC / IC50 THP-1, 48 h)
CCC(=O)CCCCC[C@@H]1NC(=O)[C@H]2CCCCN2C(=O)[C@H]([C@@H](C)CC)NC(=O)[C@H](Cc2cn(OC)c3ccccc23)NC1=O [APC, apicidin] | decreased mitochondrial membrane polarization | increased | increased apoptosis | increased the percentage of apoptotic cells |  |  |  |  |  |  |  |  |  |  |  |  |  |  | 
COc1cccc2c1C(=O)c1c(O)c3c(c(O)c1C2=O)C[C@@](O)(C(=O)CO)C[C@@H]3O[C@H]1C[C@H](N)[C@H](O)[C@H](C)O1 [Doxorubicin, reference compound] |  |  |  |  | 0.339 ± 1.2 (≈ 0.624 µM) | 0.258 ± 0.1 (≈ 0.475 µM) | 0.05 (≈ 0.092 µM) | 4.02 | 0.86 | 0.36 | 1.36 ± 0.15 (≈ 2.51 µM) | 0.224 ± 0.1 (≈ 0.412 µM) | 0.018 ± 0.1 (≈ 0.0331 µM) | 1.27 ± 0.2 (≈ 2.33 µM) | 0.189 ± 0.1 (≈ 0.348 µM) | 0.005 ± 0.01 (≈ 0.0092 µM) | 1.07 | 1.183 | 3.6
